Values of other authors as cited in US11053214B2, “Compositions and methods related to pyridinoylpiperidine 5-HT1F agonists” (COLUCID PHARMACEUTICALS, INC., priority 2016, dated 2021).

What was measured:
[1] = system: other 5-HT1 receptor subtypes
rabbit saphenous vein = conditions: concentrations up to 0.1 mM
migraine = conditions: early clinical proof-of-concept study

SMILES | affinity higher for 5-HT1F receptors than for other 5-HT1 receptor subtypes [1] | constriction of rabbit saphenous vein (rabbit saphenous vein) | efficacy in the acute treatment of migraine (migraine)
CN1CCC(C(=O)c2cccc(NC(=O)c3c(F)cc(F)cc3F)n2)CC1.O=C(O)CCC(=O)O [Compound I, hemisuccinate salt of 2,4,6-trifluoro-N-[6-(1-methyl-piperidine-4-carbonyl)-pyridin-2-yl]-benzamide] | more than 450 fold | did not constrict | 
CN1CCC(c2c[nH]c3ccc(NC(=O)c4ccc(F)cc4)cc23)CC1 [LY334370] |  |  | proved effective
